Laboratory results as given in ChEMBL document CHEMBL3046732, “Synthesis and biological evaluation of new [1,3,4]thiadiazepino[7,6-b]quinolin-2-amines as potent anti-microbial agents” (2013).

Legend:
Klebsiella aerogenes = test: Antimicrobial activity against Enterobacter aerogenes assessed as growth inhibition by microdilution method
Staphylococcus aureus = test: Antimicrobial activity against Staphylococcus aureus assessed as growth inhibition by microdilution method
Salmonella typhimurium = test: Antimicrobial activity against Salmonella enterica subsp. enterica serovar Typhimurium assessed as growth inhibition by microdilution method
Trichoderma reesei = test: Antimicrobial activity against Trichoderma reesei assessed as growth inhibition by microdilution method; format: functional
Curvularia australiensis = test: Antimicrobial activity against Curvularia australiensis assessed as growth inhibition by microdilution method; format: functional
Aspergillus flavus = test: Antimicrobial activity against Aspergillus flavus assessed as growth inhibition by microdilution method; format: functional
Streptococcus pyogenes = test: Antimicrobial activity against Streptococcus pyogenes assessed as growth inhibition by microdilution method
Escherichia coli = test: Antimicrobial activity against Escherichia coli assessed as growth inhibition by microdilution method
Bacillus subtilis = test: Antimicrobial activity against Bacillus subtilis assessed as growth inhibition by microdilution method
Aspergillus niger = test: Antimicrobial activity against Aspergillus niger assessed as growth inhibition by microdilution method; format: functional
Alternaria alternata = test: Antimicrobial activity against Alternaria alternata assessed as growth inhibition by microdilution method; format: functional

Compound | MIC (Klebsiella aerogenes) | MIC (Staphylococcus aureus) | MIC (Salmonella typhimurium) | MIC (Trichoderma reesei) | MIC (Curvularia australiensis) | MIC (Aspergillus flavus) | MIC (Streptococcus pyogenes) | MIC (Escherichia coli) | MIC (Bacillus subtilis) | MIC (Aspergillus niger) | MIC (Alternaria alternata)
COc1ccc2nc3c(cc2c1)C=NN=C(Nc1c(C)cccc1C)S3 | 500 µg/mL | 1000 µg/mL | 500 µg/mL | 500 µg/mL | 500 µg/mL | 500 µg/mL | 500 µg/mL | 500 µg/mL | 1000 µg/mL | 1000 µg/mL | 1000 µg/mL
COc1ccc2nc3c(cc2c1)C=NN=C(Nc1ccc(C)cc1C)S3 | 1000 µg/mL | 1000 µg/mL | 500 µg/mL | 500 µg/mL | 500 µg/mL | 1000 µg/mL | 1000 µg/mL | 500 µg/mL | 1000 µg/mL | 1000 µg/mL | 250 µg/mL
CCc1ccc(NC2=NN=Cc3cc4cc(OC)ccc4nc3S2)cc1 | 500 µg/mL | 500 µg/mL | 500 µg/mL | 500 µg/mL | 1000 µg/mL | 500 µg/mL | 500 µg/mL | 500 µg/mL | 500 µg/mL | 500 µg/mL | 500 µg/mL
COc1ccc2nc3c(cc2c1)C=NN=C(NCc1ccccc1)S3 | 125 µg/mL | 1000 µg/mL | 500 µg/mL | 500 µg/mL | 1000 µg/mL | 1000 µg/mL | 1000 µg/mL | 1000 µg/mL | 1000 µg/mL | 1000 µg/mL | 1000 µg/mL
COc1ccc2nc3c(cc2c1)C=NN=C(NCCN1CCOCC1)S3 | 1000 µg/mL | 500 µg/mL | 500 µg/mL | 1000 µg/mL | 1000 µg/mL | 500 µg/mL | 500 µg/mL | 500 µg/mL | 500 µg/mL | 1000 µg/mL | 1000 µg/mL
COc1ccc2nc3c(cc2c1)C=NN=C(Nc1ccccc1Cl)S3 | 125 µg/mL | 1000 µg/mL | 60 µg/mL | 500 µg/mL | 500 µg/mL | 500 µg/mL | 30 µg/mL | 500 µg/mL | 30 µg/mL | 500 µg/mL | 500 µg/mL
COc1ccc2nc3c(cc2c1)C=NN=C(Nc1ccccc1C)S3 | 1000 µg/mL | 1000 µg/mL | 125 µg/mL | 500 µg/mL | 1000 µg/mL | 500 µg/mL | 1000 µg/mL | 500 µg/mL | 1000 µg/mL | 1000 µg/mL | 1000 µg/mL

Continued, values first:

MIC (Klebsiella aerogenes) | MIC (Staphylococcus aureus) | MIC (Salmonella typhimurium) | MIC (Trichoderma reesei) | MIC (Curvularia australiensis) | MIC (Aspergillus flavus) | MIC (Streptococcus pyogenes) | MIC (Escherichia coli) | MIC (Bacillus subtilis) | MIC (Aspergillus niger) | MIC (Alternaria alternata) | Compound
500 µg/mL | 500 µg/mL | 1000 µg/mL | 1000 µg/mL | 500 µg/mL | 500 µg/mL | 500 µg/mL | 500 µg/mL | 60 µg/mL | 1000 µg/mL | 500 µg/mL | COc1ccc2nc3c(cc2c1)C=NN=C(Nc1cccc(F)c1)S3
60 µg/mL | 500 µg/mL | 250 µg/mL | 500 µg/mL | 1000 µg/mL | > 1000 µg/mL | 500 µg/mL | 500 µg/mL | 500 µg/mL | 1000 µg/mL | 60 µg/mL | COc1ccc2nc3c(cc2c1)C=NN=C(Nc1ccc(F)cc1)S3
250 µg/mL | 500 µg/mL | 500 µg/mL | 500 µg/mL | 500 µg/mL | 500 µg/mL | 30 µg/mL | 30 µg/mL | 60 µg/mL | 500 µg/mL | 60 µg/mL | COc1ccc2nc3c(cc2c1)C=NN=C(Nc1cccc(Cl)c1)S3
500 µg/mL | 500 µg/mL | 1000 µg/mL | 250 µg/mL | 500 µg/mL | 500 µg/mL | 500 µg/mL | 250 µg/mL | 60 µg/mL | 500 µg/mL | 30 µg/mL | COc1ccc2nc3c(cc2c1)C=NN=C(Nc1ccc(Cl)cc1)S3
500 µg/mL | 500 µg/mL | 500 µg/mL | 1000 µg/mL | 500 µg/mL | 1000 µg/mL | 500 µg/mL | 500 µg/mL | 250 µg/mL | > 1000 µg/mL | 500 µg/mL | COc1ccc2nc3c(cc2c1)C=NN=C(Nc1ccc(C)cc1)S3
